biological target: T1, Chymase (Homo sapiens, UniProt P23946); assay: In vitro assay for inhibition of Chymase (rhodamine 110 peptide substrate, fluorescence); format: biochemical; conditions: 500 pM chymase, 100 nM substrate, 100 μM TCEP, 1% DMSO, 28° C., 1 hour
T1 sequence (P23946 22-247): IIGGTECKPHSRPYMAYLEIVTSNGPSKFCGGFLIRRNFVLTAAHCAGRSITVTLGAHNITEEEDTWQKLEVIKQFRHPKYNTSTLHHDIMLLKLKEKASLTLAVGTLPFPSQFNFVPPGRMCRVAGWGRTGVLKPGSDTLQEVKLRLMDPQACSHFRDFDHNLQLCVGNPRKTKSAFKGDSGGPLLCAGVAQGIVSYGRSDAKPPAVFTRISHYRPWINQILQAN
Protocol: IN VITRO ASSAY FOR INHIBITION OF CHYMASE
Chymase assays were performed in a total volume of 15 μL in Corning black opaque 384-well microtiter plates with a non-binding surface (Corning, N.Y.). The assay buffer was comprised of 20 mM Tris HCl pH 8.0, 50 mM NaCl, 0.01% CHAPS. The test compounds were serially diluted 3-fold with neat DMSO in a 96-well polypropylene plate from a 10 mM DMSO stock to give the 10 point dose response curve. 3 μL of the resulting DMSO solution were transferred to a 384-well polypropylene plate in duplicate, and 37 μL of assay buffer was added. Chymase was added to the assay plate in 3 uL of assay buffer followed by 2 uL of the appropriate compound dilution using a PlateMate Plus (Matrix Technologies Corp., Hudson, N.H.). The reaction was initiated by the addition of 10 uL rhodamine 110, bis-(succinoyl-L-alanyl-L-alanyl-L-prolyl-L-phenylalanylamide) (American Peptides, Sunnyvale, Calif.) in assay buffer containing 150 μM tris(2-carboxyethyl)phosphine (TCEP, Pierce Chemical, Rockford, Ill.) using a Multidrop (Thermo Electron Corp., Waltham, Mass.). Final assay concentrations were 500 pM chymase, 100 nM substrate, 100 μM TCEP, and 1% DMSO. The plates were incubated at 28° C. and 80% humidity for 1 hour, at which time the fluorescence was read on a Viewlux 1430 Microplate Imager (Perkin Elmer Life Sciences, Boston, Mass.) with 485 nm excitation, 530 nm emission, and a fluorescein dichroic mirror. The percentage of control values were calculated relative to assay blanks containing complete reaction minus chymase and a 100% control containing assay buffer with 1% DMSO in place of compound. IC50 values were obtained by fitting the data using XLFit4 (IDBS Software).

Question: For `CCCC(Cn1c(=O)n(Cc2cn(C)c3cccc(C)c23)c2cccnc21)C(=O)O` (centres unmarked) [2-[1-(1,4-Dimethyl-1H-indol-3-ylmethyl)-2-oxo-1,2-dihydro-imidazo[4,5-b]pyridin-3-ylmethyl]-pentanoic acid], which IC50 is on record?
Answer: 3 nM

Question: For `Cc1ccc2c(n1)n([C@H](CC(=O)O)c1ccc(Cl)cc1)c(=O)n2Cc1cn(C)c2cccc(C)c12` [(R)-3-(4-Chloro-phenyl)-3-[1-(1,4-dimethyl-1H-indol-3-ylmethyl)-5-methyl-2-oxo-1,2-dihydro-imidazo[4,5-b]pyridin-3-yl]-propionic acid], which IC50 is on record?
Answer: 0.255 nM

Question: With `Cc1cc(C)c2c(Cn3c(=O)n([C@H](CC(=O)O)c4ccc(F)cc4)c4nc(C(N)=O)ccc43)cn(C)c2c1` [(R)-3-[5-Carbamoyl-2-oxo-1-(1,4,6-trimethyl-1H-indol-3-ylmethyl)-1,2-dihydro-imidazo[4,5-b]pyridin-3-yl]-3-(4-fluoro-phenyl)-propionic acid] as the molecule, how does the IC50 read?
Answer: 0.395 nM

Question: For `Cc1cccc2c1c(Cn1c(=O)n([C@H](CC(=O)O)c3ccc(F)cc3)c3nc(C#N)ccc31)cn2C` [(R)-3-[5-Cyano-1-(1,4-dimethyl-1H-indol-3-ylmethyl)-2-oxo-1,2-dihydro-imidazo[4,5-b]pyridin-3-yl]-3-(4-fluoro-phenyl)-propionic acid], which IC50 is on record?
Answer: 0.245 nM

Question: How did the IC50 turn out when `CCC[C@@H](CC(=O)NS(=O)(=O)C(C)(C)C)n1c(=O)n(Cc2cn(C)c3cccc(C)c23)c2cccnc21` [2-Methyl-propane-2-sulfonic acid {(S)-3-[1-(1,4-dimethyl-1H-indol-3-ylmethyl)-2-oxo-1,2-dihydro-imidazo[4,5-b]pyridin-3-yl]-hexanoyl}-amide] was run?
Answer: 1 nM

Question: Which IC50 does the source give for `COc1ccc([C@@H](CC(=O)O)n2c(=O)n(Cc3cn(C)c4cccc(C)c34)c3ccc(C)nc32)cc1` [(R)-3-[1-(1,4-Dimethyl-1H-indol-3-ylmethyl)-5-methyl-2-oxo-1,2-dihydro-imidazo[4,5-b]pyridin-3-yl]-3-(4-methoxy-phenyl)-propionic acid] here?
Answer: 0.455 nM

Question: `CCC[C@@H](CC(=O)O)n1c(=O)n(Cc2cn(C)c3cccc(C)c23)c2cccnc21` [(S)-3-[1-(1,4-Dimethyl-1H-indol-3-ylmethyl)-2-oxo-1,2-dihydro-imidazo[4,5-b]pyridin-3-yl]-hexanoic acid] was tested. Which IC50 did it give?
Answer: 4.93 nM

Question: For `Cc1cc(C)c2c(Cn3c(=O)n([C@H](CC(=O)O)c4cccc(Cl)c4)c4nc(C)ccc43)nsc2c1` [(R)-3-(3-Chloro-phenyl)-3-[1-(4,6-dimethyl-1,2-benzisothiazol-3-ylmethyl)-5-methyl-2-oxo-1,2-dihydro-imidazo[4,5-b]pyridin-3-yl]-propionic acid], which IC50 is on record?
Answer: 6.26 nM

Question: `Cc1cc(C)c2c(Cn3c(=O)n([C@H](CC(=O)O)c4ccc(Cl)cc4)c4nc(C)ccc43)nsc2c1` [(R)-3-(4-Chloro-phenyl)-3-[1-(4,6-dimethyl-1,2-benzisothiazol-3-ylmethyl)-5-methyl-2-oxo-1,2-dihydro-imidazo[4,5-b]pyridin-3-yl]-propionic acid] was tested. Which IC50 did it give?
Answer: 0.624 nM

Question: `CCC[C@@H](CC(=O)NS(C)(=O)=O)n1c(=O)n(Cc2cn(C)c3cccc(C)c23)c2cccnc21` [N-{(S)-3-[1-(1,4-Dimethyl-1H-indol-3-ylmethyl)-2-oxo-1,2-dihydro-imidazo[4,5-b]pyridin-3-yl]-hexanoyl}-methanesulfonamide] was tested. Which IC50 did it give?
Answer: 11.8 nM

Question: With `Cc1cccc2c1c(Cn1c(=O)n([C@H](CC(=O)O)c3ccccc3)c3ccncc31)cn2C` [(R)-3-[3-(1,4-Dimethyl-1H-indol-3-ylmethyl)-2-oxo-2,3-dihydro-imidazo[4,5-c]pyridin-1-yl]-3-phenyl-propionic acid] as the molecule, how does the IC50 read?
Answer: 3.91 nM

Question: Which IC50 does the source give for `CCCC(CC(=O)O)n1c(=O)n(Cc2cn(C)c3cccc(C)c23)c2ccc(C#N)nc21` (centres unmarked) [3-[5-Cyano-1-(1,4-dimethyl-1H-indol-3-ylmethyl)-2-oxo-1,2-dihydro-imidazo[4,5-b]pyridin-3-yl]-hexanoic acid] here?
Answer: 2.2 nM

Question: Which IC50 does the source give for `Cc1cc(C)c2c(Cn3c(=O)n([C@H](CC(=O)O)c4ccc(Cl)cc4)c4nc(C#N)ccc43)cn(C)c2c1` [(R)-3-(4-Chloro-phenyl)-3-[5-cyano-2-oxo-1-(1,4,6-trimethyl-1H-indol-3-ylmethyl)-1,2-dihydro-imidazo[4,5-b]pyridin-3-yl]-propionic acid] here?
Answer: 0.2 nM

Question: How did the IC50 turn out when `CCC[C@@H](CC(=O)O)n1c(=O)n(Cc2cn(C)c3cccc(C)c23)c2ccc(C)nc21` [(S)-3-[1-(1,4-Dimethyl-1H-indol-3-ylmethyl)-5-methyl-2-oxo-1,2-dihydro-imidazo[4,5-b]pyridin-3-yl]-hexanoic acid] was run?
Answer: 4.48 nM
